# Measurements as given in patent publication US6429204B1, “Method of inhibiting cancer growth” (University of Miami, priority 1997, dated 2002).
# pIC50: −log10 of the molar value. Like-named read-outs stand apart in the source and are kept apart here. Marks after values point to notes of the source that are not given here.
# Assays:
# [1] = test system: MMP-9 (gelatinase B) expressed by E-10 cells; test: MMP protein expression by Western blot of conditioned medium, E-10 cells; type: cell-based, human; conditions: 24 hr, serum-free medium
# Description: Two human cancer-derived cell lines were obtained from the American Type Culture Collection (ATCC) in Rockville, Md. The cell lines included COLO 205, a human colon cancer-derived cell line that expresses MMP-2 or gelatinase A, and E-10, a human breast cancer-derived cell line that expresses MMP-9 or gelatinase B.
# Cells of each cell line were cultured in 75 cm^2 T-flasks in RPMI-1640 (Gibco) with 10% heat-inactivated fetal bovine serum (FBS) containing 100 units/mL penicillin and 100 μg/mL streptomycin. The cells were fed every two days, and passaged every week. The cells were grown to 80-90% confluence, and then the FBS-containing medium was replaced with a serum-free medium (SFM). CMT-3 (CollaGenex Pharmaceuticals, Inc., Newtown, Pa.) was added in several concentrations to the cells in SFM. Conditioned medium was collected after 24 hr, centrifuged to remove cell debris, and then assayed for MMP protein expression by Western blot using a conventional technique, and scanning the blots with a laser densitometer.
# [2] = test system: HIV-related Kaposi's Sarcoma; test: Oral dose escalation study in patients with Kaposi's Sarcoma; type: in vivo, human
# Description: CMT-3 was administered orally, once daily, in a dose escalating fashion to 3-6 subjects per dose cohort. Patients with symptomatic visceral Kaposi's Sarcoma or severe tumor-associated edema were excluded. Antiretroviral therapy was permitted but not required. Study endpoints were grade 3 or grade 4 toxicity or progression of disease. Preliminary analysis was performed. Eighteen patients received CMT-3 in dosing cohorts of 25, 50 and 70 mg/m^2/day. The average age was 39 years (range, 25-57). Median CD4 count was 352 cells/mm^3 (range, 6-694). Prior therapy for Kaposi's Sarcoma was reported by 16 (89%) patients; prior antiretroviral therapy by 16 (89%) patients. Half of the patients had ≧50 lesions at baseline. Grade 3 or higher events, which were possibly/definitely related to study drug, were reported by 6 patients and consisted of photosensitivity, increased pain, headache, rash and pruritis.
# MAT LyLu cells = test: Soluble nucleosome ELISA (programmed cell death), MAT LyLu; type: cell-based, rat
# Description: An investigation of the cytotoxicity of chemically modified tetracycline compounds for cancer cells was undertaken to determine involvement of programmed cell death (apoptosis) (see Duke et al. 1986). MAT LyLu cells were incubated with various concentration of CMT-3 and doxycycline. Conditioned media were assayed for soluble nucleosomes, resulting from internucleosomal DNA strand breaks, using the Cell Death Detection ELISA Plus kit from Boehringer Mannheim GmbH (Catalog No. 1774425) according to the manufacturer's instructions. In the dosage-dependence trials, cells were incubated with the tetracycline compounds for 48 hr, and then media were collected. In the time trials, the cells were exposed to the tetracycline compounds for specific periods of time from 0 to 48 hr, and if appropriate were maintained in fresh media until 48 hr from the start of the experiment at which time media were collected.
# Serum half-life = type: in vivo
# [3] = test system: in vitro activated gelatinases (MMPs) from MAT LyLu and TSU PR1 conditioned medium; test: 3H-gelatin gelatinase activity assay on processed conditioned medium of prostate cancer cells; type: biochemical; conditions: for pIC50: read-out: 50% inhibition dose (IC50), activated gelatinases
# Description: The effects of CMT-3 and doxycycline on gelatinase activity or expression by prostate cancer cells were tested. First, we tested the capacity of CMT-3 and doxycycline to inhibit MMP secretion into culture medium. Gelatinase activity was measured using a method adapted from the method of Dean and Woessner (1985). Conditioned culture medium was collected from MAT LyLu and TSU PR1 cells treated with CMT-3 or doxycycline for two days. The serum-free culture medium comprised RPMI 1640 basal medium containing insulin (5 μg/mL), transferrin (5 μg/mL), selenious acid ([…]), and gentamicin (2 μg/mL). […] (Dean et al. 1987; Woessner 1991.) The dialyzed medium was assayed for gelatinase activity following activation of latent MMPs with 1 mM p-aminophenyl mercuric acetate (APMA) for 30 min at 37° C. The assay mix was 25 μg ^3H-gelatin (prepared from heat-denatured ^3H-acetylated acid-soluble collagen), 0.1 mL of processed culture-conditioned medium, 1 mM phenylmethyl sulfonyl fluoride (PMSF) in a total volume of 0.5 mL of an assay buffer (20 mM Tris-HCl, pH 7.4, 30 mM NaCl, 0.005% Brij35, 10 mM CaCl2, 2 μM ZnSO4, and 0.02% NaN3). In some cases, 1 mM CaCl2 (instead of 10 mM) was used. Blanks were obtained by adding 1 mM 1,10-phenanthroline. Doxycycline or CMT-3 were added to the assay mixture following activation of the latent MMPs and just before adding the substrate ^3H-gelatin.
# MMP activity in the culture media was examined at 1 mM and 10 mM CaCl2, with no change in [Zn^2+] in the assay buffer. We employed 1 mM CaCl2, as this concentration is closer to physiological concentration, and 10 mM CaCl2, as it is reported to be the optimum concentration in in vitro assays (Woessner 1991). As is shown in Table 2, both CMT-3 and doxycycline inhibited in vitro activated gelatinases.
structure (smiles),measurement,setting,value
"NC(=O)C1=C(O)CC2CC3Cc4cccc(O)c4C(=O)C3=C(O)C2(O)C1=O (centres unmarked) [CMT-3, 6-demethyl-6-deoxy-4-de(dimethylamino)tetracycline]",Percent Inhibition of MMP Protein Expression,"[1]; E-10, MMP-9, 10 μM",45.3%
same,Percent Inhibition of MMP Protein Expression,"[1]; E-10, MMP-9, 20 μM",60.8%
same,Partial responses,[2]; 25 mg/m^2/day cohort,2 patients
same,photosensitivity,[2]; 25 mg/m^2/day cohort,no photosensitivity was observed
same,Partial responses,[2]; 50 mg/m^2/day cohort,2 patients
same,Partial responses,[2]; 70 mg/m^2/day cohort,3 patients
same,Partial responses,"[2]; all cohorts, eighteen patients, oral once daily",7 patients
same,Grade 3 or higher events possibly/definitely related to study drug,"[2]; eighteen patients, 25, 50 and 70 mg/m^2/day",6 patients
same,tolerability,"[2]; oral once daily, particularly 25 mg/m^2/day",well tolerated
same,programmed cell death response after brief exposure,MAT LyLu cells; 4 hr at 5 μg/mL or 10 μg/mL,sufficient to elicit a putative programmed cell death response
same,soluble nucleosomes / programmed cell death induction,"MAT LyLu cells; dosage-dependence, 48 hr",dose-dependent increase in soluble nucleosomes
same,half-life,Serum half-life,~28 h
same,Percent Inhibition (gelatinase activity),"[3]; 0.25 μM drug, 10 mM CaCl2",31.5 ± 1.2%
same,Percent Inhibition (gelatinase activity),"[3]; 0.50 μM drug, 1 mM CaCl2",84.8 ± 10.1%
same,Percent Inhibition (gelatinase activity),"[3]; 0.50 μM drug, 10 mM CaCl2",37.8 ± 7.5^b %
same,Percent Inhibition (gelatinase activity),"[3]; 1.0 μM drug, 1 mM CaCl2",96.7 ± 4.6^a %
same,Percent Inhibition (gelatinase activity),"[3]; 1.0 μM drug, 10 mM CaCl2",45.1 ± 2.9%
same,Percent Inhibition (gelatinase activity),"[3]; 2.0 μM drug, 10 mM CaCl2",51.2 ± 2.6%
same,Percent Inhibition (gelatinase activity),"[3]; 5.0 μM drug, 1 mM CaCl2",97.2 ± 2.9%
same,Percent Inhibition (gelatinase activity),"[3]; 5.0 μM drug, 10 mM CaCl2",52.4 ± 3.5%
same,Percent Inhibition (gelatinase activity),"[3]; 10 μM drug, 1 mM CaCl2",100%
same,Percent Inhibition (gelatinase activity),"[3]; 10 μM drug, 10 mM CaCl2",69.9 ± 10.5%
same,Percent Inhibition (gelatinase activity),"[3]; 20 μM drug, 10 mM CaCl2",78.9 ± 11.4%
same,Percent Inhibition (gelatinase activity),"[3]; 50 μM drug, 10 mM CaCl2",94.2 ± 3.3%
same,pIC50,[3]; 1 mM CaCl2,6.30
same,pIC50,[3]; 10 mM CaCl2,~5.82
